Assay results as given in US20030083469A1, “Allosteric control of nuclear hormone receptors” (The Salk Institute for Biological Studies, priority 1995, published 2003).

Assays:
Type in all cases: cell-based
GAL-T3R + RXR LBD = molecular target: T1, GAL-T3R + RXR LBD (Homo sapiens, UniProt P19793); assay: Transient transfection of GAL-T3R chimera with RXR LBD; conditions: 100 nM LG69
T1 construct: or the human RXRα LBD (Glu 203 -Thr 462); expressed in transfected cells; host or cells: CV-1
T1 sequence (P19793 203-462): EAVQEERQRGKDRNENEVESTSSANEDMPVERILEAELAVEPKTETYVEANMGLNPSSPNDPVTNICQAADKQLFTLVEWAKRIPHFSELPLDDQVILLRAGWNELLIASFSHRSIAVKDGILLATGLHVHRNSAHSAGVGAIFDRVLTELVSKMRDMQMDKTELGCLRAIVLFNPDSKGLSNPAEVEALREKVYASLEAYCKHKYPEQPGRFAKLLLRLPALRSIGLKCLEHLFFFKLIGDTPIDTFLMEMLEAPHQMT
T1 sequence (P10828 178-461 partner): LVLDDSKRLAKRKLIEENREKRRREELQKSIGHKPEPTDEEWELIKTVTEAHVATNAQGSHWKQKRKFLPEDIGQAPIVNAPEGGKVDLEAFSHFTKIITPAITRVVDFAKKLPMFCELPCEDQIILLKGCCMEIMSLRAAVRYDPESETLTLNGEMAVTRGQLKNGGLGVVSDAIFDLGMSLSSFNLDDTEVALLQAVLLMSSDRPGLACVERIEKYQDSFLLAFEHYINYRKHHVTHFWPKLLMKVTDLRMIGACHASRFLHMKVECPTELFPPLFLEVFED
Description: (§1) CV-1 cells were grown in Dulbecco's Modified Eagle's medium supplemented with 10% resin-charcoal stripped (Samuels et al., Endocrinology 105:80-85 (1979)) fetal bovine serum, 50 U/ml penicillin G and 50 μg/ml streptomycin sulfate (DMEM-FBS) at 37° C. in 5% CO2. One day prior to transfection, cells were plated to 50-80% confluence using phenol-red free DMEM-FBS. Cells were transfected by lipofection using N-{2-(2,3)-dioleoyloxy)propyl-N,N,N-trimethyl ammonium methyl sulfate} according to the manufacturer's instructions (DOTAP, Boehringer Mannheim). […] Cells were harvested and assayed for luciferase and β-galactosidase activity. All points were performed in triplicate in each experiment and varied by less than 10%. Each experiment was repeated three or more times with similar results.
(§2) Since RXR serves as a silent partner in the T3R and RAR pathways, it was next investigated whether RXR could serve as an active component in other complexes. To search for such complexes, the LBD of a number of nuclear receptors were fused to the GAL4 DBD, and tested to determine whether the RXR LBD could confer LG69 responsiveness upon these GAL-LBD chimeras. […] Normalized luciferase activity was determined and plotted as fold-activation relative to untreated cells.

[1] = molecular target: T2, GAL chimera containing the LBD of VDR + RXR LBD (Homo sapiens, UniProt P19793); assay: Transient transfection of GAL-VDR LBD chimera with RXR LBD; conditions: 100 nM LG69
T2 construct: or the human RXRα LBD (Glu 203 -Thr 462); expressed in transfected cells; host or cells: CV-1
T2 sequence (P19793 203-462): T1 sequence (P19793 203-462)
Description: as §1, §2

Nurrl = molecular target: T3, Nurrl (Mus musculus, UniProt Q06219); assay: Transient transfection of full-length Nurrl on NBRE x3 TK-LUC; conditions: Nurrl alone; 100 nM LG69
T3 construct: an expression vector for full-length mouse Nurrl; expressed in transfected cells; host or cells: CV-1
T3 sequence (Q06219 whole entry): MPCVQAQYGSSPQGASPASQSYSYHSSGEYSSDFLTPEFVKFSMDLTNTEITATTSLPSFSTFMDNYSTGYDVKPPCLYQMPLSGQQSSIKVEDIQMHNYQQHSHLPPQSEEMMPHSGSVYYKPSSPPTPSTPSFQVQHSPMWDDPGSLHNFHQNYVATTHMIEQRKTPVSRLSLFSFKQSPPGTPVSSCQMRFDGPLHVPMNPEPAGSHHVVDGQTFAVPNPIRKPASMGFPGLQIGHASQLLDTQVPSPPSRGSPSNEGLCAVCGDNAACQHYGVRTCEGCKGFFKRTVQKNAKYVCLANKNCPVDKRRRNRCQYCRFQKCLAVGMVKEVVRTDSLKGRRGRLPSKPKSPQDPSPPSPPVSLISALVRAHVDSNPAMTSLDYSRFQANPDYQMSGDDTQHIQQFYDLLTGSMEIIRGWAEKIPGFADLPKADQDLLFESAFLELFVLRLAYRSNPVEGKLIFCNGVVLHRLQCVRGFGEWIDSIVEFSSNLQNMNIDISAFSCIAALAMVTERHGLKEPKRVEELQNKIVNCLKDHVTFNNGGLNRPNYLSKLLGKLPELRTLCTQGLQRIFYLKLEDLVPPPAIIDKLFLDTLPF
Description: as §1
Thus, CV-1 cells were tranfected with NBRE×3 TK-LUC (300 ng/10^5 cells) , CMX-βgal (500 ng/10^5 cells), alone or with CMX-Nurrl (100 ng/10^5 cells) and CMX-hRXRα (100 ng/10^5 cells) as indicated in FIG. 7B. Following transfection, cells were treated with or without 100 nM LG69. Normalized luciferase activity was determined and plotted as reporter activity.

GAL-RXR+T3R LBD = molecular target: T4, GAL-RXR+T3R LBD (Homo sapiens, UniProt P10828+P19793); assay: Transient transfection analysis of GAL-RXR LBD in the presence of T3R LBD
T4 construct: human RXRα LBD (Glu 203 - Thr 462); human T3Rβ LBD (Leu 173 - Asp 456); expressed in transfected cells; host or cells: CV-1
T4 sequence (P19793 203-462 limits assumed): T1 sequence (P19793 203-462)
T4 sequence (P10828 178-461 limits assumed): T1 sequence (P10828 178-461 partner)
Description: One day prior to transfection, cells were plated to 50-80% confluence using phenol-red free DMEM-FBS. Cells were transfected by lipofection using N-{2-(2,3)-dioleoyloxy)propyl-N,N,N-trimethyl ammonium methyl sulfate} according to the manufacturer's instructions (DOTAP, Boehringer Mannheim).
Normalized luciferase activity was determined and plotted as fold-activation relative to untreated cells.

RXR LBD = molecular target: T5, RXR LBD (Homo sapiens, UniProt P19793); assay: Transient transfection, RXR LBD expressed alone (UASG x4 TK-LUC); conditions: 100 nM LG69
T5 construct: or the human RXRα LBD (Glu 203 -Thr 462); expressed in transfected cells; host or cells: CV-1
T5 sequence (P19793 203-462): T1 sequence (P19793 203-462)
Description: as §1, §2

Which results are given for CC=C(c1ccc(C(=O)O)cc1)c1cc2c(cc1C)C(C)(C)CCC2(C)C [LG69, 4-{1-(3,5,5,8,8-pentamethyl-5,6,7,8-tetrahydro-2-napthalenyl)-1-propenyl}benzoic acid]?
LG69 responsiveness (GAL-T3R + RXR LBD): not seen; LG69 inducibility [1]: not observed; responsiveness of Nurrl on the NBRE reporter (Nurrl): not responsive; activity of T3+LG69 compared with T3 alone (GAL-RXR+T3R LBD; 100 nM T3+100 nM LG69): slightly less activity; fold response to LG69 (GAL-RXR+T3R LBD; GAL-RXR+T3R LBD (unliganded), 100 nM LG69): 57 fold; LG69 responsiveness (RXR LBD): not seen
